In ChEMBL document CHEMBL3045548, “Synthesis of some novel 1,2,4-triazole and 1,3,4-oxadiazole derivatives of biological interest” (2013):
Values after ≈ are worked out from the molar mass of the structure shown.

Key:
Assay type in all cases: functional
Saccharomyces cerevisiae = assay: Antimicrobial activity against Saccharomyces cerevisiae NICM 3312 assessed as growth inhibition by two fold serial dilution method
Pseudomonas aeruginosa = assay: Antimicrobial activity against Pseudomonas aeruginosa NICM 2036 assessed as growth inhibition by two-fold serial dilution method
[1] = system: Staphylococcus epidermidis; assay: Antimicrobial activity against Staphylococcus epidermidis NICM 2493 assessed as growth inhibition by two fold serial dilution method
Escherichia coli = assay: Antimicrobial activity against Escherichia coli NICM 2138 assessed as growth inhibition by two-fold serial dilution method
Aspergillus flavus = assay: Antimicrobial activity against Aspergillus flavus NICM 524 assessed as growth inhibition by two fold serial dilution method
Aspergillus niger = assay: Antimicrobial activity against Aspergillus niger NICM 572 assessed as growth inhibition by two fold serial dilution method
Candida albicans = assay: Antimicrobial activity against Candida albicans NICM 3100 assessed as growth inhibition by two-fold serial dilution method
Rhizopus arrhizus = assay: Antimicrobial activity against Rhizopus oryzae NICM 997 assessed as growth inhibition by two-fold serial dilution method
Bacillus subtilis = assay: Antimicrobial activity against Bacillus subtilis NICM 2063 assessed as growth inhibition by two fold serial dilution method
Staphylococcus aureus = assay: Antimicrobial activity against Staphylococcus aureus NICM 2079 assessed as growth inhibition by two fold serial dilution method

| SMILES | MIC (Saccharomyces cerevisiae) | MIC (Pseudomonas aeruginosa) | MIC [1] | MIC (Escherichia coli) | MIC (Aspergillus flavus) | MIC (Aspergillus niger) | MIC (Candida albicans) | MIC (Rhizopus arrhizus) | MIC (Bacillus subtilis) | MIC (Staphylococcus aureus) |
| --- | --- | --- | --- | --- | --- | --- | --- | --- | --- | --- |
| Cc1nn(-c2ccc(-c3nnc(S)n3N)cc2)c(=O)n1N | 150 µg/mL (≈ 493 µM) | 18.8 µg/mL (≈ 61.6 µM) | 75 µg/mL (≈ 246 µM) | 37.5 µg/mL (≈ 123 µM) | 75 µg/mL (≈ 246 µM) | 37.5 µg/mL (≈ 123 µM) | 150 µg/mL (≈ 493 µM) | 18.8 µg/mL (≈ 61.6 µM) | 18.8 µg/mL (≈ 61.6 µM) | 9.37 µg/mL (≈ 30.8 µM) |
| Cc1nn(-c2ccc(-c3nnc(S)o3)cc2)c(=O)n1/N=C/c1cscn1 | 150 µg/mL (≈ 389 µM) | 150 µg/mL (≈ 389 µM) | 18.8 µg/mL (≈ 48.6 µM) | 37.5 µg/mL (≈ 97.3 µM) | 150 µg/mL (≈ 389 µM) | 150 µg/mL (≈ 389 µM) | 150 µg/mL (≈ 389 µM) | 37.5 µg/mL (≈ 97.3 µM) | 37.5 µg/mL (≈ 97.3 µM) | 75 µg/mL (≈ 195 µM) |
| Cc1nn(-c2ccc(-c3nnc(S)o3)cc2)c(=O)n1/N=C/c1ccco1 | 150 µg/mL (≈ 407 µM) | 37.5 µg/mL (≈ 102 µM) | 75 µg/mL (≈ 204 µM) | 150 µg/mL (≈ 407 µM) | 150 µg/mL (≈ 407 µM) | 150 µg/mL (≈ 407 µM) | 150 µg/mL (≈ 407 µM) | 150 µg/mL (≈ 407 µM) | 150 µg/mL (≈ 407 µM) | 37.5 µg/mL (≈ 102 µM) |
| Cc1nn(-c2ccc(-c3nnc(S)o3)cc2)c(=O)n1/N=C/c1ccccc1Br | 150 µg/mL (≈ 328 µM) | 150 µg/mL (≈ 328 µM) | 75 µg/mL (≈ 164 µM) | 150 µg/mL (≈ 328 µM) | 75 µg/mL (≈ 164 µM) | 150 µg/mL (≈ 328 µM) | 150 µg/mL (≈ 328 µM) | 37.5 µg/mL (≈ 82 µM) | 75 µg/mL (≈ 164 µM) | 75 µg/mL (≈ 164 µM) |
| Cc1nn(-c2ccc(-c3nnc(S)o3)cc2)c(=O)n1/N=C/c1ccc(F)cc1 | 150 µg/mL (≈ 378 µM) | 75 µg/mL (≈ 189 µM) | 150 µg/mL (≈ 378 µM) | 37.5 µg/mL (≈ 94.6 µM) | 75 µg/mL (≈ 189 µM) | 75 µg/mL (≈ 189 µM) | 150 µg/mL (≈ 378 µM) | 75 µg/mL (≈ 189 µM) | 75 µg/mL (≈ 189 µM) | 150 µg/mL (≈ 378 µM) |
| Cc1nn(-c2ccc(-c3nnc(S)o3)cc2)c(=O)n1/N=C/c1cc(F)ccc1F | 150 µg/mL (≈ 362 µM) | 75 µg/mL (≈ 181 µM) | 18.8 µg/mL (≈ 45.2 µM) | 150 µg/mL (≈ 362 µM) | 9.37 µg/mL (≈ 22.6 µM) | 37.5 µg/mL (≈ 90.5 µM) | 18.8 µg/mL (≈ 45.2 µM) | 18.8 µg/mL (≈ 45.2 µM) | 37.5 µg/mL (≈ 90.5 µM) | 75 µg/mL (≈ 181 µM) |
| Cc1nn(-c2ccc(-c3nnc(S)o3)cc2)c(=O)n1/N=C/c1cccc(F)c1 | 75 µg/mL (≈ 189 µM) | 75 µg/mL (≈ 189 µM) | 37.5 µg/mL (≈ 94.6 µM) | 9.37 µg/mL (≈ 23.6 µM) | 150 µg/mL (≈ 378 µM) | 150 µg/mL (≈ 378 µM) | 150 µg/mL (≈ 378 µM) | 150 µg/mL (≈ 378 µM) | 18.8 µg/mL (≈ 47.3 µM) | 9.37 µg/mL (≈ 23.6 µM) |
| Cc1nn(-c2ccc(-c3nnc(S)o3)cc2)c(=O)n1/N=C/c1ccccc1F | 75 µg/mL (≈ 189 µM) | 75 µg/mL (≈ 189 µM) | 150 µg/mL (≈ 378 µM) | 75 µg/mL (≈ 189 µM) | 37.5 µg/mL (≈ 94.6 µM) | 75 µg/mL (≈ 189 µM) | 150 µg/mL (≈ 378 µM) | 9.37 µg/mL (≈ 23.6 µM) | 75 µg/mL (≈ 189 µM) | 37.5 µg/mL (≈ 94.6 µM) |
| CCOC(=O)CSc1nnc(-c2ccc(-n3nc(C)n(N)c3=O)cc2)o1 | 150 µg/mL (≈ 399 µM) | 75 µg/mL (≈ 199 µM) | 75 µg/mL (≈ 199 µM) | 37.5 µg/mL (≈ 99.6 µM) | 150 µg/mL (≈ 399 µM) | 150 µg/mL (≈ 399 µM) | 150 µg/mL (≈ 399 µM) | 150 µg/mL (≈ 399 µM) | 37.5 µg/mL (≈ 99.6 µM) | 18.8 µg/mL (≈ 49.8 µM) |
| Cc1nn(-c2ccc(-c3nnc(S)o3)cc2)c(=O)n1N | 150 µg/mL (≈ 517 µM) | 37.5 µg/mL (≈ 129 µM) | 150 µg/mL (≈ 517 µM) | 75 µg/mL (≈ 258 µM) | 150 µg/mL (≈ 517 µM) | 150 µg/mL (≈ 517 µM) | 37.5 µg/mL (≈ 129 µM) | 75 µg/mL (≈ 258 µM) | 37.5 µg/mL (≈ 129 µM) | 75 µg/mL (≈ 258 µM) |
| CSc1nnc(-c2ccc(-n3nc(C)n(N)c3=O)cc2)o1 | 150 µg/mL (≈ 493 µM) | 75 µg/mL (≈ 246 µM) | 75 µg/mL (≈ 246 µM) | 75 µg/mL (≈ 246 µM) | 150 µg/mL (≈ 493 µM) | 150 µg/mL (≈ 493 µM) | 150 µg/mL (≈ 493 µM) | 37.5 µg/mL (≈ 123 µM) | 150 µg/mL (≈ 493 µM) | 37.5 µg/mL (≈ 123 µM) |
| C[C@@H]1[C@H](O)[C@@H](C)/C=C/C=C/C=C/C=C/C=C/C=C/C=C/[C@H](O[C@@H]2O[C@H](C)[C@@H](O)[C@H](N)[C@@H]2O)C[C@@H]2O[C@](O)(C[C@@H](O)C[C@@H](O)[C@H](O)CC[C@@H](O)C[C@@H](O)CC(=O)O[C@H]1C)C[C@H](O)[C@H]2C(=O)O [AMPHOTERICIN B] | 6.25 µg/mL (≈ 6.76 µM) |  |  |  | 6.25 µg/mL (≈ 6.76 µM) | 1.56 µg/mL (≈ 1.69 µM) | 6.25 µg/mL (≈ 6.76 µM) | 1.56 µg/mL (≈ 1.69 µM) |  |  |
| CC1(C)S[C@@H]2[C@H](NC(=O)Cc3ccccc3)C(=O)N2[C@H]1C(=O)O [PENICILLIN G] |  | 9.37 µg/mL (≈ 28 µM) | 3.12 µg/mL (≈ 9.35 µM) | 6.25 µg/mL (≈ 18.7 µM) |  |  |  |  | 1.53 µg/mL (≈ 4.56 µM) | 6.25 µg/mL (≈ 18.7 µM) |
| CN[C@@H]1[C@H](O[C@H]2[C@H](O[C@H]3[C@H](O)[C@@H](O)[C@H](N=C(N)N)[C@@H](O)[C@@H]3N=C(N)N)O[C@@H](C)[C@]2(O)C=O)O[C@@H](CO)[C@H](O)[C@H]1O [STREPTOMYCIN] |  | 3.12 µg/mL (≈ 5.37 µM) | 1.56 µg/mL (≈ 2.69 µM) | 3.12 µg/mL (≈ 5.37 µM) |  |  |  |  | 6.25 µg/mL (≈ 10.7 µM) | 1.56 µg/mL (≈ 2.68 µM) |
